# Assay results as given in paper PMC5524190 (Biochemistry, 2016).
# Where two headings read alike, the source gives them in different places.
# What was measured:
# BaIMPDHΔL [1] = format: biochemical, Bacillus anthracis
# BaIMPDHΔL [2] = format: biochemical, Bacillus anthracis; remark: listed apart in the source
SMILES,"Ki (BaIMPDHΔL [1]; read-out: Ki(Q), observed ± std.err.) [µM]","Ki (BaIMPDHΔL [1]; read-out: Ki(Q,B), observed ± std.err.) [µM]",lower limit of k4 (NADH rebinding) (BaIMPDHΔL [2]) [M⁻¹ s⁻¹],"Ki (BaIMPDHΔL [2]; read-out: Ki(Q), predicted) [µM]","Ki (BaIMPDHΔL [2]; read-out: Ki(Q,B), predicted) [µM]","Ki (BaIMPDHΔL [1]; read-out: Ki(B), observed ± std.err.) [µM]","Km (BaIMPDHΔL [1]; read-out: Km(B), observed ± std.err.) [µM]",k2 (BaIMPDHΔL [2]) [M⁻¹ s⁻¹],k−2 (BaIMPDHΔL [2]) [s⁻¹],k−7 (BaIMPDHΔL [2]) [s⁻¹],lower limit of k−7 (substrate inhibition by NAD+) (BaIMPDHΔL [2]) [M⁻¹ s⁻¹],"Ki (BaIMPDHΔL [2]; read-out: Ki(B), predicted) [µM]","Km (BaIMPDHΔL [2]; read-out: Km(B), predicted) [µM]",Kd (BaIMPDHΔL [2]; read-out: dissociation equilibrium constant k−7/k7 (substrate inhibition by NAD+)) [µM]
NC(=O)C1=CN([C@@H]2O[C@H](COP(=O)(O)OP(=O)(O)OC[C@H]3O[C@@H](n4cnc5c(N)ncnc54)[C@H](O)[C@@H]3O)[C@@H](O)[C@H]2O)C=CC1 [NADH],620 ± 360,97 ± 9,> 2e+06,301,87.2,–,–,–,–,–,–,–,–,–
NC(=O)c1ccc[n+]([C@@H]2O[C@H](COP(=O)([O-])OP(=O)(O)OC[C@H]3O[C@@H](n4cnc5c(N)ncnc54)[C@H](O)[C@@H]3O)[C@@H](O)[C@H]2O)c1 [NAD^+],–,–,–,–,–,7400 ± 400,460 ± 20,31800,10.9,566000,> 4000,6610,415,~5500
